Measured values reported in patent US11571423B2, “Small molecule modulators of human sting” (Curadev Pharma Limited, priority 2017, dated 2023).

Key:
hSTING(R232) = hSTING(R232) (Homo sapiens, UniProt Q86WV6, H232R); assay: Luciferase reporter assay in HEK293T-hSTING-Luciferase cells, R232 (wild type) human STING; format: cell-based; details: 20 hr stimulation, read-out: R232 human activity (EC50 range)
In short: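 After 20 hr compound stimulation of 5×10^5 cells, secreted luciferase in the supernatant was measured by luminescence; values are fold-induction over baseline and EC50. The line is a clonal HEK293T stably carrying a STING plasmid (pUNO-1) and a luciferase reporter under five tandem ISREs fused to an ISG54 promoter.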

[1] = target: cynomolgus monkey STING protein (Macaca fascicularis, UniProt A0A2R3XZA6); assay: Luciferase reporter assay, cynomolgus monkey STING overexpressed in HEK293T cells; format: cell-based; details: cynomolgus monkey STING overexpressed in HEK293T cells; read-out: Cynomolgus monkey STING activity (EC50 range)
Description: 5×10^5 clonally selected HEK293T-hSTING-Luciferase cells were seeded in 384-well plates in growth medium and stimulated with novel compounds. After 20 hr of stimulation supernatant were removed and secretary reporter gene activity were measured using the Quanti-Luc detection system (Invivogen) on a Spectramax i3X luminometer.
In the tables below, EC50 value ranges for exemplary compounds are given.
Selected compounds were further tested against cynomolgus monkey STING protein overexpressed in HEK293T cells.

Sequence of hSTING(R232) (Q86WV6 whole entry H232R, the tested form may be a part): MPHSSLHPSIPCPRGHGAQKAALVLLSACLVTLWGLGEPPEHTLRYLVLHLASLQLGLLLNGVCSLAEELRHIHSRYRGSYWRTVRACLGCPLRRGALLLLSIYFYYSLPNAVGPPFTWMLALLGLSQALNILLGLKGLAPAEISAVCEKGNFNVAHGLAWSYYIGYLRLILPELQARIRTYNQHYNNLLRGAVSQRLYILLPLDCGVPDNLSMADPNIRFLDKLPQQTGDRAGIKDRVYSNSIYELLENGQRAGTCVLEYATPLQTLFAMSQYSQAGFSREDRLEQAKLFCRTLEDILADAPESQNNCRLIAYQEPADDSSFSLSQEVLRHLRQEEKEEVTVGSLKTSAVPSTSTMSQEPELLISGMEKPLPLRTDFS
Sequence of cynomolgus monkey STING protein (A0A2R3XZA6 entry or part of it): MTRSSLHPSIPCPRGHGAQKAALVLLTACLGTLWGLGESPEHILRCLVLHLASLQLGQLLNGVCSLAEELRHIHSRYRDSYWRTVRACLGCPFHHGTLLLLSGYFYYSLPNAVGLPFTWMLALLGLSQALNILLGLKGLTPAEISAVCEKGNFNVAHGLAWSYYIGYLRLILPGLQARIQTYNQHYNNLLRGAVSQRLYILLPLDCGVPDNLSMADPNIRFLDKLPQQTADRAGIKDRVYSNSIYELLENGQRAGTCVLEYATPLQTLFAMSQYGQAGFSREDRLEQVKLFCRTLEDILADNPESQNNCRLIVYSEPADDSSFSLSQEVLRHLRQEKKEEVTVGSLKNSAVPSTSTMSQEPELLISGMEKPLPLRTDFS

Structure (SMILES) | EC50 (hSTING(R232)) [nM] | EC50 [1] [nM]
C[C@H]1c2ccc(C(=O)NCc3c(F)cc(F)cc3F)cc2N(Cc2c(F)cc(OC[C@H](O)CO)cc2F)C(=O)N1C [Example 146, (S)-1-(4-((R)-2,3-Dihydroxypropoxy)-2,6-difluorobenzyl)-3,4-dimethyl-2-oxo-N-(2,4,6-trifluorobenzyl)-1,2,3,4-tetrahydroquinazoline-7-carboxamide] | < 1000 | < 1000
COc1cc(F)c(CNC(=O)c2ccc3c(c2)N(Cc2c(F)cc(OC)cc2F)C(=O)N(C)[C@H]3C)c(F)c1 [Example 149, (S)—N,1-bis(2,6-difluoro-4-methoxybenzyl)-3,4-dimethyl-2-oxo-1,2,3,4-tetrahydroquinazoline-7-carboxamide] | < 1000 | < 1000
Cc1cccc(CN2C(=O)N(C)C(C)c3ccc(C(=O)NCc4c(F)cc(F)cc4F)cc32)c1F (stereo not shown) [Example 164, 1-(2-fluoro-3-methylbenzyl)-3,4-dimethyl-2-oxo-N-(2,4,6-trifluorobenzyl)-1,2,3,4-tetrahydroquinazoline-7-carboxamide] | < 1000 | < 1000
COc1cc(F)c(CN2C(=O)N(C)C(C)c3ccc(C(=O)NCc4c(F)cc(F)cc4F)cc32)c(F)c1 (stereo not shown) [Example 165, 1-(2,6-difluoro-4-methoxybenzyl)-3,4-dimethyl-2-oxo-N-(2,4,6-trifluorobenzyl)-1,2,3,4-tetrahydroquinazoline-7-carboxamide] | < 1000 | < 1000
COc1ccc(F)c(CN2C(=O)N(C)C(C)c3ccc(C(=O)NCc4c(F)cc(F)cc4F)cc32)c1 (stereo not shown) [Example 166, 1-(2-fluoro-5-methoxybenzyl)-3,4-dimethyl-2-oxo-N-(2,4,6-trifluorobenzyl)-1,2,3,4-tetrahydroquinazoline-7-carboxamide] | < 1000 | 1000 to 10000
Cc1cccc(CN2C(=O)N(C)[C@@H](C)c3ccc(C(=O)NCc4c(F)cc(F)cc4F)cc32)c1F [Example 168, (S)-1-(2-fluoro-3-methylbenzyl)-3,4-dimethyl-2-oxo-N-(2,4,6-trifluorobenzyl)-1,2,3,4-tetrahydroquinazoline-7-carboxamide] | < 1000 | < 1000
Cc1ncc(Cl)c(CN2C(=O)N(C)C(C)c3ccc(C(=O)NCc4c(F)cc(F)cc4F)cc32)c1F (stereo not shown) [Example 176, 1-((5-chloro-3-fluoro-2-methylpyridin-4-yl)methyl)-3,4-dimethyl-2-oxo-N-(2,4,6-trifluorobenzyl)-1,2,3,4-tetrahydroquinazoline-7-carboxamide] | < 1000 | < 1000
COc1ccc(F)c(F)c1CN1C(=O)N(C)C(C)c2ccc(C(=O)NCc3c(F)cc(F)cc3F)cc21 (stereo not shown) [Example 178, 1-(2,3-difluoro-6-methoxybenzyl)-3,4-dimethyl-2-oxo-N-(2,4,6-trifluorobenzyl)-1,2,3,4-tetrahydroquinazoline-7-carboxamide] | < 1000 | < 1000
COc1ccc(F)c(CN2C(=O)N(C)[C@@H](C)c3ccc(C(=O)NCc4c(F)cc(F)cc4F)cc32)c1 [Example 183, (S)-1-(2-fluoro-5-methoxybenzyl)-3,4-dimethyl-2-oxo-N-(2,4,6-trifluorobenzyl)-1,2,3,4-tetrahydroquinazoline-7-carboxamide] | < 1000 | < 1000
COc1ncc(Cl)c(CN2C(=O)N(C)[C@@H](C)c3ccc(C(=O)NCc4c(F)cc(F)cc4F)cc32)c1F [Example 184, (S)-1-((5-chloro-3-fluoro-2-methoxypyridin-4-yl)methyl)-3,4-dimethyl-2-oxo-N-(2,4,6-trifluorobenzyl)-1,2,3,4-tetrahydroquinazoline-7-carboxamide] | < 1000 | < 1000
C[C@H]1c2ccc(C(=O)NCc3c(F)cc(F)cc3F)cc2N(Cc2c(F)cc(OCCOC(=O)CN)cc2F)C(=O)N1C [Example 187, (S)-2-(4-((3,4-dimethyl-2-oxo-7-((2,4,6-trifluorobenzyl)carbamoyl)-3,4-dihydroquinazolin-1(2H)-yl)methyl)-3,5-difluorophenoxy)ethyl 2-aminoacetate] | < 1000 | < 1000
CC1c2ccc(C(=O)NCc3c(F)cc(F)cc3F)cc2N(Cc2ccccc2F)C(=O)N1C (stereo not shown) [Example 202, 1-(2-fluorobenzyl)-3,4-dimethyl-2-oxo-N-(2,4,6-trifluorobenzyl)-1,2,3,4-tetrahydroquinazoline-7-carboxamide] | < 1000 | < 1000
CC1c2ccc(C(=O)NCc3c(F)cc(F)cc3F)cc2N(Cc2c(F)cccc2C(F)(F)F)C(=O)N1C (stereo not shown) [Example 209, 1-(2-fluoro-6-(trifluoromethyl)benzyl)-3,4-dimethyl-2-oxo-N-(2,4,6-trifluorobenzyl)-1,2,3,4-tetrahydroquinazoline-7-carboxamide] | < 1000 | < 1000
CC1c2ccc(C(=O)NCc3c(F)cc(F)cc3F)cc2N(Cc2cc(O)ccc2F)C(=O)N1C (stereo not shown) [Example 231, 1-(2-fluoro-5-hydroxybenzyl)-3,4-dimethyl-2-oxo-N-(2,4,6-trifluorobenzyl)-1,2,3,4-tetrahydroquinazoline-7-carboxamide] | < 1000 | < 1000
C[C@H]1c2ccc(C(=O)NCc3c(F)cc(F)cc3F)cc2N(Cc2c(OCCO)ccc(F)c2F)C(=O)N1C [Example 254, (S)-1-(2,3-difluoro-6-(2-hydroxyethoxy)benzyl)-3,4-dimethyl-2-oxo-N-(2,4,6-trifluorobenzyl)-1,2,3,4-tetrahydroquinazoline-7-carboxamide] | < 1000 | 1000 to 10000
C[C@H]1c2ccc(C(=O)NCc3c(F)cc(F)cc3F)cc2N(Cc2c(F)ccc(O)c2F)C(=O)N1C [Example 255, (S)-1-(2,6-difluoro-3-hydroxybenzyl)-3,4-dimethyl-2-oxo-N-(2,4,6-trifluorobenzyl)-1,2,3,4-tetrahydroquinazoline-7-carboxamide] | < 1000 | < 1000

Next, values leading:

EC50 (hSTING(R232)) [nM] | EC50 [1] [nM] | Structure (SMILES)
< 1000 | 1000 to 10000 | C[C@H]1c2ccc(C(=O)NCc3c(F)cc(F)cc3F)cc2N(Cc2c(F)ccc(OCCO)c2F)C(=O)N1C [Example 256, (S)-1-(2,6-difluoro-3-(2-hydroxyethoxy)benzyl)-3,4-dimethyl-2-oxo-N-(2,4,6-trifluorobenzyl)-1,2,3,4-tetrahydroquinazoline-7-carboxamide]
< 1000 | < 1000 | COc1ccc(F)c(CN2C(=O)N(C)[C@@H](C)c3ccc(C(=O)NCc4c(F)cc(F)cc4F)cc32)c1F [Example 258, (S)-1-(2,6-difluoro-3-methoxybenzyl)-3,4-dimethyl-2-oxo-N-(2,4,6-trifluorobenzyl)-1,2,3,4-tetrahydroquinazoline-7-carboxamide]
< 1000 | < 1000 | COc1cc(F)cc(F)c1CN1C(=O)N(C)[C@@H](C)c2ccc(C(=O)NCc3c(F)cc(F)cc3F)cc21 [Example 259, (S)-1-(2,4-difluoro-6-methoxybenzyl)-3,4-dimethyl-2-oxo-N-(2,4,6-trifluorobenzyl)-1,2,3,4-tetrahydroquinazoline-7-carboxamide]
< 1000 | < 1000 | C[C@H]1c2ccc(C(=O)NCc3c(F)cc(F)cc3F)cc2N(Cc2c(O)cc(F)cc2F)C(=O)N1C [Example 260, (S)-1-(2,4-difluoro-6-hydroxybenzyl)-3,4-dimethyl-2-oxo-N-(2,4,6-trifluorobenzyl)-1,2,3,4-tetrahydroquinazoline-7-carboxamide]
< 1000 | 1000 to 10000 | C[C@H]1c2ccc(C(=O)NCc3c(F)cc(F)cc3F)cc2N(Cc2cc(OCCO)ccc2F)C(=O)N1C [Example 263, (S)-1-(2-fluoro-5-(2-hydroxyethoxy)benzyl)-3,4-dimethyl-2-oxo-N-(2,4,6-trifluorobenzyl)-1,2,3,4-tetrahydroquinazoline-7-carboxamide]
< 1000 | < 1000 | COc1cc(F)c(CN2C(=O)N(C)[C@@H](C)c3ccc(C(=O)NCc4c(F)cc(F)cc4F)cc32)cc1OC [Example 265, (S)-1-(2-fluoro-4,5-dimethoxybenzyl)-3,4-dimethyl-2-oxo-N-(2,4,6-trifluorobenzyl)-1,2,3,4-tetrahydroquinazoline-7-carboxamide]
< 1000 | < 1000 | C[C@H]1c2ccc(C(=O)NCc3c(F)cc(F)cc3F)cc2N(Cc2c(F)ccc(CO)c2F)C(=O)N1C [Example 269, (S)-1-(2,6-difluoro-3-(hydroxymethyl)benzyl)-3,4-dimethyl-2-oxo-N-(2,4,6-trifluorobenzyl)-1,2,3,4-tetrahydroquinazoline-7-carboxamide]
< 1000 | < 1000 | COc1cc(F)c(F)c(CN2C(=O)N(C)[C@@H](C)c3ccc(C(=O)NCc4c(F)cc(F)cc4F)cc32)c1 [Example 270, (S)-1-(2,3-difluoro-5-methoxybenzyl)-3,4-dimethyl-2-oxo-N-(2,4,6-trifluorobenzyl)-1,2,3,4-tetrahydroquinazoline-7-carboxamide]
< 1000 | 1000 to 10000 | C[C@H]1c2ccc(C(=O)NCc3c(F)cc(F)cc3F)cc2N(Cc2cc(OCCCO)ccc2F)C(=O)N1C [Example 271, (S)-1-(2-fluoro-5-(3-hydroxypropoxy)benzyl)-3,4-dimethyl-2-oxo-N-(2,4,6-trifluorobenzyl)-1,2,3,4-tetrahydroquinazoline-7-carboxamide]
< 1000 | 1000 to 10000 | C[C@H]1c2ccc(C(=O)NCc3c(F)cc(F)cc3F)cc2N(Cc2cc(N)ccc2F)C(=O)N1C [Example 273, (S)-1-(5-amino-2-fluorobenzyl)-3,4-dimethyl-2-oxo-N-(2,4,6-trifluorobenzyl)-1,2,3,4-tetrahydroquinazoline-7-carboxamide]
